Measurements: patent US20120129811A1, “TRICYCLIC INHIBITORS OF PRO-MATRIX METALLOPROTEINASE ACTIVATION” (priority 2010, published 2012)
Counter-ions that a name gives are not always drawn.

Tests used:
[1] = target: T1, proMMP9(67-444;ΔFnII) (SEQ ID NO:5) (Homo sapiens, UniProt P14780, DEL216-390); test: ThermoFluor binding assay with proMMP9(67-444;ΔFnII)
T1 construct: start methionine (N); made in house; host or cells: E. coli BL21(DE3) RIL
T1 sequence (P14780 with tags, fused parts or gaps DEL216-390): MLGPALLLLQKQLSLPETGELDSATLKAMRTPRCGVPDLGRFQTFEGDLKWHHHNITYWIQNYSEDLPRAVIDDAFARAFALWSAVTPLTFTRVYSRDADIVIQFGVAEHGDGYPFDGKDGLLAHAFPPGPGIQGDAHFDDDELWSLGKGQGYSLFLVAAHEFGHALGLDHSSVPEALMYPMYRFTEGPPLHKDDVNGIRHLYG
Procedure: (§1) The ThermoFluor® (TF) assay is a 384-well plate-based binding assay that measures thermal stability of proteins (Biomol Screen 2001, 6, 429-40; Biochemistry 2005, 44, 5258-66). The experiments were carried out using instruments available from Johnson & Johnson Pharmaceutical Research & Development, LLC. TF dye used in all experiments was […] (1,8-ANS) (Invitrogen: A-47).
(§2) Compounds were arranged in a pre-dispensed plate (Greiner Bio-one: 781280), wherein compounds were serially diluted in 100% DMSO across 11 columns within a series. Columns 12 and 24 were used as DMSO reference and contained no compound. For multiple compound concentration-response experiments, the compound aliquots (50 nL) were robotically predispensed directly into black 384-well polypropylene PCR microplates (Abgene: TF-0384/k) using a Cartesian Hummingbird liquid handler (DigiLab, Holliston, Mass.). Following compound dispense, protein and dye solutions were added to achieve the final assay volume of 3 μL. The assay solutions were overlayed with 1 μL of silicone oil (Fluka, type DC 200: 85411) to prevent evaporation.
(§3) Assay plates were robotically loaded onto a thermostatically controlled PCR-type thermal block and then heated from 40 to 90° C. at a ramp-rate of 1° C./min for all experiments. Fluorescence was measured by continuous illumination with UV light (Hamamatsu LC6) supplied via fiber optics and filtered through a band-pass filter (380-400 nm; >60D cutoff). Fluorescence emission of the entire 384-well plate was detected by measuring light intensity using a CCD camera (Sensys, Roper Scientific) filtered to detect 500±25 nm, resulting in simultaneous and independent readings of all 384 wells. A single image with 20-sec exposure time was collected at each temperature, and the sum of the pixel intensity in a given area of the assay plate was recorded vs temperature and fit to standard equations to yield the Tm (J Biomol Screen 2001, 6, 429-40).
(§4) Thermodynamic parameters necessary for fitting compound binding for each proMMP were estimated by differential scanning calorimetry (DSC) and from ThermoFluor® data. The heat capacity of unfolding for each protein was estimated from the molecular weight and from ThermoFluor® dosing data.
ThermoFluor® with proMMP9(67-444;ΔFnM (SEQ ID NO:5)
The protein sample preparations had to include a desalting buffer exchange step via a PD-10 gravity column (GE Healthcare). The desalting buffer exchange was performed prior to diluting the protein to the final assay concentration of 3.5 μM proMMP9(67-444;ΔFnII) (SEQ ID NO:5). The concentration of proMMP9(67-444;ΔFnII) (SEQ ID NO:5) was determined spectrophotometrically based on a calculated extinction coefficient of ε280=33900 M^−1 cm^−1, a calculated molecular weight of 22.6 kDa, and calculated pI of 5.20. ThermoFluor® reference conditions were defined as follows: 80 μg/mL (3.5 μM) proMMP9(67-444;ΔFnII) (SEQ ID NO:5), 50 μM 1,8-ANS, pH 7.0 Buffer (50 mM HEPES pH 7.0, 100 mM NaCl, 0.001% Tween-20, 2.5 mM MgCl2, 300 μM CaCl2). The thermodynamic parameters for proMMP9(67-444;ΔFnII) (SEQ ID NO:5) are as follows: Tm (° C.)=63 (+/−0.1), ΔUH(Tm)(cal mol^−1)=105000(+/−5000), ΔUS(Tm) (cal mol^−1 K^−1)=450, ΔUCp (cal mol^−1 K^−1)=2000.

[2] = target: T2, full-length proMMP9(1-707) activation by catalytic MMP3 (Homo sapiens, UniProt P14780, R574P); test: proMMP9/MMP3 P126 Activation Assay; format: biochemical
T2 construct: made in house; host or cells: proMMP9: HEK293 (secreted); MMP3: E. coli
Procedure: proMMP9/MMP3 P126 Activation Assay
The reaction volume was 50 μL. […] Reactivity of residual MMP3 towards P-126 substrate was minimal under these conditions.

[3] = target: T3, proMMP9(20-445;ΔFnII) (SEQ ID NO:6) (Homo sapiens, UniProt P14780, DEL216-390); test: ThermoFluor binding assay with proMMP9(20-445;ΔFnII)
T3 construct: start methionine (N); made in house; host or cells: E. coli BL21(DE3) RIL
T3 sequence (P14780 with tags, fused parts or gaps DEL216-390): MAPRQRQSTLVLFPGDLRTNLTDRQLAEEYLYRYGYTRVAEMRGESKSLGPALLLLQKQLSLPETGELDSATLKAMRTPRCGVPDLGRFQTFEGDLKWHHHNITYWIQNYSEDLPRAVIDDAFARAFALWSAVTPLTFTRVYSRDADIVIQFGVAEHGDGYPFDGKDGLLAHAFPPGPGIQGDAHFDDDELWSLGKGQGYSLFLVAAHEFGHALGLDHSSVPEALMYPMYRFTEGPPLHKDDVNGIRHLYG
Procedure: as §1, §2, §3, §4
ThermoFluor® with proMMP9(20-445; ΔFnII (SEQ ID NO:6)
The protein sample preparations included a desalting buffer exchange step via a PD-10 gravity column (GE Healthcare). The desalting buffer exchange was performed prior to diluting the protein to the final assay concentration of 2.8 μM proMMP9(20-445;ΔFnII) (SEQ ID NO:6). The concentration of proMMP9(20-445;ΔFnII) (SEQ ID NO:6) was determined spectrophotometrically based on a calculated extinction coefficient of ε280=39880 M^−1 cm^−1, a calculated molecular weight of 28.2 kDa, and calculated pI of 5.5. ThermoFluor® reference conditions were define as follows: 80 μg/mL (2.8 μM) proMMP9(20-445;ΔFnII) (SEQ ID NO:6), 50 μM 1,8-ANS, pH 7.0 Buffer (50 mM HEPES pH 7.0, 100 mM NaCl, 0.001% Tween-20, 2.5 mM MgCl2, 300 μM CaCl2). The thermodynamic parameters for proMMP9(20-445;ΔFnII) (SEQ ID NO:6) are as follows: Tm (° C.)=72 (+/−0.1), ΔUH(Tm) (cal mol^−1)=160000(+/−5000), ΔUSTm (cal mol^−1 K^−1)=434, ΔUCp (cal mol^−1 K^−1)=2400.

T2 sequence (P14780 20-707 R574P): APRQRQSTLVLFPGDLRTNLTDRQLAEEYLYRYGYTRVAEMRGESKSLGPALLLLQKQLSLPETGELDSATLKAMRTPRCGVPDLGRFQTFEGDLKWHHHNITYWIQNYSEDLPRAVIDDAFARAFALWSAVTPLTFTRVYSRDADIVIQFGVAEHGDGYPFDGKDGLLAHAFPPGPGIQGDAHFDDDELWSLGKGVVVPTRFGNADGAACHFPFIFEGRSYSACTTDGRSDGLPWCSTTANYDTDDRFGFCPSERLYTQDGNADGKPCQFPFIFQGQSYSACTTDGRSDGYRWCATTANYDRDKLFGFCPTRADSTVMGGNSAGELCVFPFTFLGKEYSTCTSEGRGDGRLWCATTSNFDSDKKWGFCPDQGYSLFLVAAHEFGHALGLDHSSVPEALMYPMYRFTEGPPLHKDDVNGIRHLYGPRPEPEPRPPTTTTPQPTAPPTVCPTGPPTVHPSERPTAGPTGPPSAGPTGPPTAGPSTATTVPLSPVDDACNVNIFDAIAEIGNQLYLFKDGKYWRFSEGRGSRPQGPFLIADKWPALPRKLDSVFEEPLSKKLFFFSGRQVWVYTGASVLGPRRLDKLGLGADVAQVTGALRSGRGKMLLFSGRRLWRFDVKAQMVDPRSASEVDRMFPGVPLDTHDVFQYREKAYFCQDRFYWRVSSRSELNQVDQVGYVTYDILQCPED

Row | Compound | Kd [1] | IC50 [2] | Kd [3]
1 | CCOc1ccccc1Nc1nc2c(ccc3sc(N)nc32)s1 [Example 3, N^7-(2-Ethoxy-phenyl)-benzo[2,1-d;3,4-d′]bisthiazole-2,7-diamine.TFA] | 1.6 µM | 1.4 µM | 3.2 µM
2 | CCOc1ccccc1Nc1nc2c(ccc3sc(Nc4ccccc4OCC)nc32)s1 [Example 4, N,N′-Bis-(2-ethoxy-phenyl)-benzo[2,1-d;3,4-d′]bisthiazole-2,7-diamine.TFA] | 30 µM | 4.7 µM | 67 µM
3 | COc1ccc(Cl)cc1Nc1nc2c(ccc3nc(N)sc32)s1 [Example 7, N^7-(5-Chloro-2-methoxy-phenyl)-benzo[1,2-d;3,4-d′]-bisthiazole-2,7-diamine.TFA] | 0.2 µM | 1.7 µM | 2.3 µM
4 | Cc1nc2ccc3sc(Nc4ccccc4OC(C)C)nc3c2s1 [Example 17, (2-Isopropoxy-phenyl)-(2-methyl-benzo[1,2-d;3,4-d′]-bisthiazol-7-yl)-amine.HCl] | > 95 µM | 5.8 µM | > 95 µM
5 | Cc1[nH]c2c(ccc3sc(Nc4cc(C(N)=O)ccc4OC(C)C)nc32)c1C [Example 45, 3-(6,7-Dimethyl-8H-3-thia-1,8-diaza-as-indacen-2-ylamino)-4-isopropoxy-benzamide.HCl] | 3.3 µM | 3.9 µM | 0.78 µM
6 | COc1ccccc1Nc1nc2c(ccc3c2ncn3C)s1 [Example 46, (2-Methoxy-phenyl)-(6-methyl-6H-imidazo[4′,5′:3,4]benzo[2,1-d]thiazol-2-yl)-amine.HCl] | 0.24 µM | 0.15 µM | 0.64 µM
7 | COc1cc([N+](=O)[O-])ccc1Nc1nc2c(ccc3c2ncn3C)s1 [Example 83, (2-Methoxy-4-nitro-phenyl)-(6-methyl-6H-imidazo[4′,5′:3,4]benzo[2,1-d]thiazol-2-yl)-amine.HCl] |  | ~0.1 µM | 
8 | COc1ccc(C#N)cc1Nc1nc2c(ccc3ocnc32)s1 [Example 84, 4-Methoxy-3-(thiazolo[4′,5′:3,4]-benzo[2,1-d]oxazol-7-ylamino)-benzonitrile] |  | 0.75 µM | 
9 | CC(C)Cc1ccc(C(N)=O)cc1Nc1nc2c(ccc3c2ncn3C)s1 [Example 88, 4-Isobutyl-3-(6-methyl-6H-imidazo[4′,5′:3,4]-benzo[2,1-d]thiazol-2-ylamino)-benzamide] |  | 3.9 µM | 
10 | COc1ccccc1Nc1nc2c(ccc3cnccc32)s1 [Example 100, (2-Methoxy-phenyl)-thiazolo[4,5-f]isoquinolin-2-yl-amine.TFA] |  | 1.7 µM | 76 µM
11 | COc1ccc(S(N)(=O)=O)cc1Nc1nc2c(ccc3cnccc32)s1 [Example 104, 4-Methoxy-3-(thiazolo[4,5-f]isoquinolin-2-ylamino)-benzenesulfonamide.TFA] | 6.1 µM |  | 7.7 µM
12 | COc1ccc(C#N)cc1Nc1nc2c(ccc3cnccc32)s1 [Example 151, 4-Methoxy-3-(thiazolo[4,5-f]isoquinolin-2-ylamino)-benzonitrile.TFA] |  | > 20 µM | > 95 µM
13 | CCn1c(C)nc2ccc3sc(Nc4cnccc4OC)nc3c21 [Example 152, 8-Ethyl-N-(4-methoxypyridin-3-yl)-7-methyl-8H-imidazo[4′,5′:5,6]benzo[1,2-d]thiazol-2-amine] |  | 0.55 µM | 
14 | CC(C)Oc1ccc(S(N)(=O)=O)cc1Nc1nc2c(ccc3c2ccn3C)s1 [Example 161, 4-isopropoxy-3-((6-methyl-6H-thiazolo[4,5-e]indol-2-yl)amino)benzenesulfonamide.HCl] |  | 0.34 µM | 0.48 µM
15 | Cn1ccc2c3nc(Nc4cc(S(N)(=O)=O)ccc4OC(F)(F)F)sc3ccc21 [Example 162, 3-((6-methyl-6H-thiazolo[4,5-e]indol-2-yl)amino)-4-(trifluoromethoxy)benzenesulfonamide.HCl] |  | 0.64 µM | 0.43 µM
16 | COc1ccc(S(C)(=O)=O)cc1Nc1nc2c(ccc3c2ccn3C)s1 [Example 163, N-(2-methoxy-5-(methylsulfonyl)phenyl)-6-methyl-6H-thiazolo[4,5-e]indol-2-amine.HCl] |  | 0.11 µM | 0.42 µM
